The structures appear in SMILES notation.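 Method: 48-hour compound exposure of cells in 96-well plates, five concentrations, linear interpolation of endpoints. GI50 is the concentration that inhibits growth by half. TGI marks complete inhibition of growth.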 Where only a bound is given, the exact number is not on record here.

Nine compounds from PubChem BioAssay (NCI) can be followed below.

Experiment in all cases: DTP human tumour cell line panel, 48 h
The test system of assay [1] is U251 CNS.
Assay [2] deals with LOX IMVI melanoma.
Assay [3] concerns ACHN renal.
Assay [4] has as its system NCI-H226 lung.
In assay [5] the test system is UO-31 renal.
Assay [6] deals with SK-MEL-2 melanoma.
Assay [7] has as its system SN12C renal.
The subject of assay [8] is SNB-19 CNS.
The subject of assay [9] is DU-145 prostate.
In assay [10] the test system is CCRF-CEM leukemia.

`COc1cccc(NC(=O)CC(=O)NNCC(=O)Nc2nnc(-c3ccc(N(CCC#N)S(=O)(=O)c4ccccc4)cc3)s2)c1`: the TGI in assay [1], in assay [2], in assay [3], in assay [4], in [5] and in assay [6] was over 100 µM throughout. Also, the total growth inhibition concentration (TGI) in assay [7] and in assay [8] was over 100 µM throughout.

As to `COc1ccc2c(c1)CC1Cc3ccccc3CCN1C2` (configuration not stated), the TGI in assay [9] is over 100 µM; in assay [1] it was over 100 µM; in [2], 51.8 µM; in assay [3] it was over 100 µM; in assay [4], over 100 µM; in [5], over 100 µM. Moreover, the TGI in assay [6], in assay [7], in [10] and in [8] was over 100 µM throughout.

`CCC(=O)NC(OCC1(CC)COC1)(C(F)(F)F)C(F)(F)F`: the TGI in [9], in assay [1], in assay [2], in assay [3], in [4] and in [5] was over 100 µM each time. Further, the TGI in [6], in assay [7], in [10] and in assay [8] was over 100 µM each time.

Regarding `COc1cc(OC)cc(-c2n/c(=C\c3c(O)[nH]c4ccc(Cl)cc34)cc3c2=Nc2ccccc2-3)c1`, the GI50 in [9] is 2.91 µM; in assay [1], 1.75 µM; in assay [2], 1.92 µM; in assay [3] it was 5.37 µM; in [4], 22.8 µM; in assay [5] it was 12.5 µM. Moreover, the GI50 in assay [6] is 20.8 µM; in assay [7] it was 3.73 µM; in assay [10] it was 3.34 µM; in assay [8] it was 3.54 µM. Moreover, the TGI amounted to 6.88 µM in [9]; 3.22 µM in [1]; 4.34 µM in assay [2]; 20.7 µM in assay [3]; 59.8 µM in [4]; 29.2 µM in assay [5]. The total growth inhibition concentration (TGI) in assay [6] was 43.4 µM; in [7], 17.2 µM; in assay [10], over 100 µM; in assay [8] it was 16.1 µM.

For `CCNc1ncnc2c1nnn2CC`, the TGI in assay [9], in [1], in assay [2], in [3], in [4] and in [5] was over 100 µM in each case. In addition, the TGI in assay [6], in assay [7], in assay [10] and in [8] was over 100 µM in each case.

Turning to `COC(=O)C1=C(C)N(NC(=O)c2ccccc2)C2(O)CCCC(=O)C12C` (configuration not stated), the TGI in [1], in assay [2], in assay [3], in [4], in [5] and in assay [6] was over 100 µM each time. In addition, the TGI in assay [7] and in [8] was over 100 µM each time.

Consider `CC(C)(C)OC(=O)NCC(=O)NC1C/C(=N\O)c2sccc21` (configuration not stated), for which the TGI in [9], in assay [1], in assay [2], in assay [4], in assay [5] and in assay [6] was over 100 µM in each case. Besides, the total growth inhibition concentration (TGI) in [7], in assay [10] and in assay [8] was over 100 µM in each case.

With `CN(/N=N/c1nc[nH]c1C(N)=O)C1CCCCC1`, the TGI in assay [1], in assay [2], in assay [3], in assay [4], in assay [6] and in [7] was over 100 µM in each case. In addition, the TGI in [10] and in assay [8] was over 100 µM throughout.

Take `COc1ccc2c(c1OC)C(=O)O[C@@H]2[C@H]1c2cc3c(cc2CCN1C)OCO3`: the TGI in assay [9], in [1], in assay [2], in [3], in assay [4] and in assay [5] was over 100 µM each time. For the same compound, the TGI in assay [6], in assay [7] and in assay [8] was over 100 µM each time.

The term TGI denotes the concentration giving total growth inhibition. The low end stands for more potent growth arrest, the high end for less potent growth arrest. One may read the GI50 as the concentration giving 50% growth inhibition.
